Measurements taken from US8969312B2, “Low side effect pharmaceutical composition containing antituberculosis drugs” (priority 2011, dated 2015).

Experiments:
[1] = system: amidase; assay: Mouse liver microsomal amidase, isoniazid to isonicotinic acid; format: biochemical
From the text: Mouse liver microsomes were used as the source of amidase, and isoniazid was used as the amidase metabolism drugs. quantitative isoniazid was catalyzed into metabolites isonicotinic acid (INA) by amidase, and was used as the index for measurement of the amidase activity for establishment of the platform for screening in vitro amidase activity inhibitors. The HPLC system includes a Shimadzu the LC-LOAD pump, 1 Shimadzu system control and a Shimadzu autosampler (Shimadzu Scientific Instrument, Japan). A C18 column (particle size 5 μm, inner diameter of 50×4.6 mm, 25 cm) containing 70% methanol and 30% ammonium formate (50 mM, pH=2.5) of the mobile phase for HPLC separation, and the experimental steps are outlined as follows:
(2) An aliquot of 150 μL mouse liver microsomal solution was added to 100 μL isoniazid solution in 35 μL 67 mM potassium phosphate buffer solution ([…], pH=7) with a final concentration at 3 mM, and then mixed thoroughly with 15 μL amidase inhibitor (deionized water was added in the control group). (3) Incubation at 37° C. water bath for 30 minutes. (4) An aliquot of 300 μL acetonitrile (ACN) was added and mixed thoroughly, and incubated for 6 minutes. (5) An aliquot of 30 μL perchloric acid was then mixed and incubated for 6 minutes. (6) The mixture was centrifuged at 13000 g for 6 minutes. (7) After centrifugation, 100 μL of the supernatant was injected into HPLC. (8) Methanol ammonium formate (50 mM, pH=2.5)=70:30 (V/V) was selected as the mobile phase, and the flow rate was controlled at […] and detected at 270 nm UV. […] The amidase inhibition % was then calculated using the following formula: […]

[2] = target: human liver microsomal cytochrome P450 2E1 (CYP2E1) (Homo sapiens, UniProt P05181); assay: Human liver microsomal CYP2E1, chlorzoxazone 6-hydroxylation;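 also: chlorzoxazone added as substrate, 6-hydroxychlorzoxazone formation quantified by LC/MS/MS after 30 min at 37 °C with NADP+ regenerating system, compared against solvent control without test sample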
Chain of human liver microsomal cytochrome P450 2E1 (CYP2E1) (P05181 whole entry): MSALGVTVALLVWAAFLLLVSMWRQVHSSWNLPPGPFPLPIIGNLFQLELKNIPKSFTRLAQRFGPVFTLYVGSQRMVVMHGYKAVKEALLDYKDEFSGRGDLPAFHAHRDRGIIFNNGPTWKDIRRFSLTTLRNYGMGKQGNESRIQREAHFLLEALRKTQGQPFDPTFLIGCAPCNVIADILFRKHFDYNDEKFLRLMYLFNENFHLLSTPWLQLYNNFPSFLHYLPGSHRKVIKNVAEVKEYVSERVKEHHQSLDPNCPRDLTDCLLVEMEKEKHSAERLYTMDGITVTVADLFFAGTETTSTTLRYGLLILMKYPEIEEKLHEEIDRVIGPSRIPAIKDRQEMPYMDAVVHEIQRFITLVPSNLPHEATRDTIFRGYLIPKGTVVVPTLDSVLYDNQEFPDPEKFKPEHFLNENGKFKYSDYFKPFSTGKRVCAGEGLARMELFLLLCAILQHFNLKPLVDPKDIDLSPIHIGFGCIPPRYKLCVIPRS

[3] = Table 6, minimum tested concentration (mg/L) × volume of human liver and intestine (3 L)

Compound | Amidase inhibition ([1]; 1 uM) [%] | Amidase inhibition ([1]; 10 uM) [%] | Amidase inhibition ([1]; 100 uM) [%] | Minimum Effective Dose [2, 3] [mg] | other results
O=C(O)[C@H]1O[C@@H](Oc2cc3oc(-c4ccccc4)cc(=O)c3c(O)c2O)[C@H](O)[C@@H](O)[C@@H]1O [Baicalin] | 2.1 ± 7.5 | 15.2 ± 6.3 | 34.8 ± 10.2 | 24 | 
C=CC(=C)CCC=C(C)C [β-Myrcene] | 1.7 ± 1.3 | 6.6 ± 4.1 | 5.8 ± 2.7 | 8 | 
Magnesium stearate |  |  |  |  | Inhibition of CYP 2E1 ([2]; 16.5 μM): 2.0 ± 1.0%; Inhibition of CYP 2E1 ([2]; 33 μM): 3.0 ± 0.7%; Inhibition of CYP 2E1 ([2]; 66 μM): 5.0 ± 1.6%
O=c1cc(-c2ccc(O)cc2)oc2c([C@@H]3O[C@H](CO)[C@@H](O)[C@H](O)[C@H]3O)c(O)cc(O)c12 [Vitexin] |  |  |  | 24 | 
COc1ccc([C@@H]2CC(=O)c3c(O)cc(O[C@@H]4O[C@H](CO)[C@@H](O)[C@H](O)[C@H]4O[C@@H]4O[C@@H](C)[C@H](O)[C@@H](O)[C@H]4O)cc3O2)cc1 [Poncirin] | 10.8 ± 3.8 | 8.1 ± 11.7 | 17.3 ± 5.8 |  | 
O=C([O-])c1ccccc1.[Na+] [Sodium benzoate] |  |  |  |  | Inhibition of CYP 2E1 ([2]; 0.08% (w/v)): 7.8 ± 4.1%; Inhibition of CYP 2E1 ([2]; 0.167% (w/v)): 15.8 ± 0.9%; Minimum Effective Dose ([2]; Table 7): 9 mg; Inhibition of CYP 2E1 ([2]; […] (w/v)): 7.1 ± 2.0%
O=C1C[C@@H](c2ccc(O)c(O)c2)Oc2cc(O)cc(O)c21 [Eriodictyol] | 9.0 ± 4.7 | 6.5 ± 11.3 | 22.3 ± 4.7 |  | 
CC1(C)CC[C@]2(C(=O)O)CC[C@]3(C)C(=CC[C@@H]4[C@@]5(C)CC[C@H](O)C(C)(C)[C@@H]5CC[C@]43C)[C@@H]2C1 [Oleanolic Acid] | 20.3 ± 5.2 | 14.8 ± 3.4 | 24.5 ± 4.0 |  | 
O=c1cc(-c2ccccc2)oc2c1ccc1ccccc12 [α-Naphthoflavone] | 7.3 ± 7.9 | 19.3 ± 3.7 | 36.9 ± 2.7 |  | 
CCCCCCCCCCCCCC(=O)OCC [Ethyl Myristate] |  |  |  | 14 | 
O=c1cc(-c2ccc(O)c(O)c2)oc2cc(O)c([C@@H]3O[C@H](CO)[C@@H](O)[C@H](O)[C@H]3O)c(O)c12 [Homoorientin] | 7.4 ± 3.8 | 3.5 ± 0.9 | 18.0 ± 2.6 |  | 
O=C1C[C@@H](c2ccc(O[C@@H]3O[C@H](CO)[C@@H](O)[C@H](O)[C@H]3O)cc2)Oc2cc(O)ccc21 [Liquiritin] | 2.5 ± 2.9 | −7.5 ± 13.4 | 12.5 ± 8.3 |  | 
O=c1c(O[C@@H]2O[C@H](CO)[C@H](O)[C@H](O)[C@H]2O)c(-c2ccc(O)c(O)c2)oc2cc(O)cc(O)c12 [Hyperoside] |  |  |  | 25 | 
C[C@@H]1O[C@@H](OC[C@H]2O[C@@H](Oc3cc(O)c4c(c3)O[C@H](c3ccc(O)c(O)c3)CC4=O)[C@H](O)[C@@H](O)[C@@H]2O)[C@H](O)[C@H](O)[C@H]1O [Eriocitrin] | −16.1 ± 12.8 | 19.0 ± 3.0 | 32.8 ± 1.9 |  | 
COc1ccc(-c2cc(=O)c3c(O)cc(O)c(-c4cc(-c5cc(=O)c6c(O)cc(OC)cc6o5)ccc4OC)c3o2)cc1 [Sciadopitysin] | 10.3 ± 3.8 | 20.7 ± 6.0 | 20.6 ± 19.3 |  | 
COc1cc(/C=C/C(=O)CC(=O)/C=C/c2ccc(O)c(OC)c2)ccc1O [Curcumin] | 16.9 ± 11.0 | 16.1 ± 0.4 | 9.7 ± 6.0 |  | 
COc1ccc(-c2cc(=O)c3c(OC)c(OC)c(OC)cc3o2)cc1OC [Sinensetin] | −0.8 ± 3.0 | 6.6 ± 0.5 | 9.7 ± 0.9 |  | 
O=C/C=C/c1ccccc1 [Trans-Cinnamaldehyde] |  |  |  | 7 | 
CC(C)[C@@H](C)/C=C/[C@@H](C)[C@H]1CC[C@H]2C3=CC=C4C[C@@H](O)CC[C@]4(C)[C@H]3CC[C@]12C [Ergosterol] | 4.3 ± 10.7 | −0.4 ± 10.7 | 0.4 ± 3.6 |  | 
